Data published in US12281057B2 (VERTEX PHARMACEUTICALS INCORPORATED, priority 2017, dated 2025).

What follows are compounds tested against truncated form of human NaV 1.8 with full channel activity (Homo sapiens, UniProt Q9Y5Y9) (assay: E-VIPR Assay Method A for detecting and measuring Nav inhibition (HEK cells, membrane potential FRET dyes, electrical stimulation)). Details: HEK cells expressing human NaV 1.8, HS (human serum) in compound loading buffer, 11 point dose response, top dose 3 μM, Table 20, read-out: Nav 1.8 MedChem Optical Assay EVIPR Assay Method A HS IC50.
Assay type: cell-based
Description: E-VIPR Assay Method A for Detecting and Measuring Nav Inhibition Properties Sodium ion channels are voltage-dependent proteins that can be activated by inducing membrane voltage changes by applying electric fields. The electrical stimulation instrument and methods of use, referred to as E-VIPR, are described in International Publication No. WO 2002/008748 A3 and C.-J. Huang et al. Characterization of voltage-gated sodium channel blockers by electrical stimulation and fluorescence detection of membrane potential, 24 Nature Biotech. 439-46 (2006), both of which are incorporated by reference in their entirety. The instrument comprises a microtiter plate handler, an optical system for exciting the coumarin dye while simultaneously recording the coumarin and oxonol emissions, a waveform generator, a current- or voltage-controlled amplifier, and parallel electrode pairs that are inserted into assay plate wells. Under integrated computer control, this instrument passes user-programmed electrical stimulus protocols to cells within the wells of the microtiter plate. […] Sigma #F4135), 1% NEAA (Non-Essential Amino Acids, Life Tech #11140), 1% HEPES (Life Tech #15630), 1% Pen-Strep (Penicillin-Streptomycin; […] Cells were expanded in vented cap flasks, with 95% humidity and 5% CO2. Reagents and Stock Solutions: • 100 mg/mL Pluronic F-127 (Sigma #P2443), in dry DMSO • Compound Plates: […] 5% KIR 2.1 Bacmam virus (produced in-house), prepared as described in Section 3.3 of J. A. […] The solution was made by adding 10% Pluronic F127 stock equal to combined volumes of CC2-DMPE and DiSBAC6(3). The order of preparation was first mix Pluronic and CC2-DMPE, then add DiSBAC6(3), then while vortexing add Bath1/β-Cyclodextrin. […] Assay Protocol: […] Final DMSO concentration for all wells in the assay was 0.625% (0.75% DMSO was supplemented to the Compound Loading Buffer for a final DMSO concentration of 0.625%). […] 3) Cell plates were prepared. On the day of the assay, the media was aspirated, and the cells were washed three times with 80 μL of Bath-1 buffer, maintaining 25 μL residual volume in each well. 4) 25 μL per well of Hexyl Dye Solution was dispensed into the cell plates. The cells were incubated for 20 minutes at room temp or ambient conditions in darkness. 5) 80 μL per well of Compound Loading Buffer was dispensed into compound plates. 6) The cell plates were washed three times with 80 μL per well of Bath-1 Buffer, leaving 25 µL of residual volume. Then 25 uL per well from compound plate was transferred to each cell plate. The mixture was incubated for 30 minutes at room temp/ambient conditions. 7) The plate was read on E-VIPR using the current-controlled amplifier to deliver stimulation wave pulses using the following protocol: 1.25 Amps, 2.5 ms pulse width biphasic waveform, 10 Hz for 10 seconds at a scan rate of 200 Hz. A pre-stimulus recording was performed for 0.5 seconds to obtain the un-stimulated intensities baseline. The stimulatory waveform was followed by 0.5 seconds of post-stimulation recording to examine the relaxation to the resting state. Data Analysis: Data were analyzed and reported as normalized ratios of emission intensities measured in the 460 nm and 580 nm channels. The response as a function of time was reported as the ratios obtained using the following formula: […] The data were further reduced by calculating the initial (Ri) and final (Rf) ratios. These were the average ratio values during part or all of the pre-stimulation period and during sample points during the stimulation period. The fluorescence ratio (Rf/Ri) was then calculated and reported as a function of time. Control responses were obtained by performing assays in the presence of the positive control, and in the absence of pharmacological agents (DMSO vehicle negative control). Responses to the negative (N) and positive (P) controls were calculated as above. The compound antagonist % activity A was then defined as: [formula] where X is the ratio response of the test compound. […]

truncated form of human NaV 1.8 with full channel activity, sequence (Q9Y5Y9 126-1722 limits assumed): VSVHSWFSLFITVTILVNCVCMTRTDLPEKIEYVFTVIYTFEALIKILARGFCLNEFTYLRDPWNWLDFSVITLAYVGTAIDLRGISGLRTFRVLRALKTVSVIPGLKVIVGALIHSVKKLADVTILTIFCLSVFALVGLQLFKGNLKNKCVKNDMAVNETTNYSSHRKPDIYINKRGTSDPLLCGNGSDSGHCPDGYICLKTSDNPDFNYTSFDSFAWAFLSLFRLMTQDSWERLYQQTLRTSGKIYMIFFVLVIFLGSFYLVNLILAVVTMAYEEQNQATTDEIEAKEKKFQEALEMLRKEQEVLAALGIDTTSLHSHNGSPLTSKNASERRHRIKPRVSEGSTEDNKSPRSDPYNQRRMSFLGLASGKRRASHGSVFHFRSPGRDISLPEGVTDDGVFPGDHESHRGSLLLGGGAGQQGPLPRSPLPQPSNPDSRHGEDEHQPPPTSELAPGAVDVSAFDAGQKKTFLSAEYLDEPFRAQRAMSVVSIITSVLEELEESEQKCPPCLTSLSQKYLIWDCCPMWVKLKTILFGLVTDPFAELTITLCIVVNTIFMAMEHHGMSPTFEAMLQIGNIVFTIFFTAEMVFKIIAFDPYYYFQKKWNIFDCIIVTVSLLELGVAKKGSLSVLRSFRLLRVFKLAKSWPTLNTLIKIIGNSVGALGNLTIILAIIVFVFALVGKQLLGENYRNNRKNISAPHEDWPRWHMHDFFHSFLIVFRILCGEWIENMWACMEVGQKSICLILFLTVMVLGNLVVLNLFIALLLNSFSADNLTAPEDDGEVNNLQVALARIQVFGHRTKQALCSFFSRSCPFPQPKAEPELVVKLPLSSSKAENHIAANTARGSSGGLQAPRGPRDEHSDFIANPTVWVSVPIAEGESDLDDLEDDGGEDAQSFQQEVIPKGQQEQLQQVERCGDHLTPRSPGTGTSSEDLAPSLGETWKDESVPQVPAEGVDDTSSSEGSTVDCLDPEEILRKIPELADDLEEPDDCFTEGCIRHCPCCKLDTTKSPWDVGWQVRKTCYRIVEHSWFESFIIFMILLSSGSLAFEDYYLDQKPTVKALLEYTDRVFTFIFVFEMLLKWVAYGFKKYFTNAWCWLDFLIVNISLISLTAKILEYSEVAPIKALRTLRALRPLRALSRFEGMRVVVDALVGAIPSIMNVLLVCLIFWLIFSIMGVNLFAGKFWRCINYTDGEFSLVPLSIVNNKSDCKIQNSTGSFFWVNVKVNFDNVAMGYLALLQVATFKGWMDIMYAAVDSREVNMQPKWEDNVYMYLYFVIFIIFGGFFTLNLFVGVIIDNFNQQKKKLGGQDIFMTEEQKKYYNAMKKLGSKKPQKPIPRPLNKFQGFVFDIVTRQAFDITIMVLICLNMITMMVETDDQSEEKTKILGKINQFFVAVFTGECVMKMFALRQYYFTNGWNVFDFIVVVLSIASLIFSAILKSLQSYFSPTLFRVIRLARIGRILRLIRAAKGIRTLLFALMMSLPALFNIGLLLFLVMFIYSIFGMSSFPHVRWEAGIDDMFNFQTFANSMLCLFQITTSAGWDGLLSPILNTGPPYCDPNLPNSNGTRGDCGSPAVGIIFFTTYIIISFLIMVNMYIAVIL

| IC50 [nM] | Structure (SMILES) |
| --- | --- |
| 1 | COc1cc(OC(F)(F)F)ccc1Oc1ccc(C(F)(F)F)c(F)c1C(=O)Nc1ccc(F)c(C(N)=O)c1 [Compound 2, N-(3-carbamoyl-4-fluoro-phenyl)-2-fluoro-6-[2-methoxy-4-(trifluoromethoxy)phenoxy]-3-(trifluoromethyl)benzamide] |
| 8 | [2H]C([2H])([2H])Oc1cc(OC(F)(F)F)ccc1Oc1cc(C(F)(F)F)cc(F)c1C(=O)Nc1ccnc(C(N)=O)c1 [Compound 17, 4-[[2-fluoro-6-[2-(trideuteriomethoxy)-4-(trifluoromethoxy)phenoxy]-4-(trifluoromethyl)benzoyl]amino]pyridine-2-carboxamide] |

Same assay, conditions: HEK cells expressing human NaV 1.8, HS (human serum) in compound loading buffer, 11 point dose response, top dose 3 μM, Table 20A, read-out: Nav 1.8 MedChem Optical Assay EVIPR Assay Method A HS IC50

| IC50 [nM] | Structure (SMILES) |
| --- | --- |
| 5 | COc1cc(OC(F)(F)F)ccc1Oc1cc(C(F)(F)F)cc(F)c1C(=O)Nc1ccc(F)c(C(N)=O)c1 [Compound 140, N-(3-Carbamoyl-4-fluoro-phenyl)-2-fluoro-6-[2-methoxy-4-(trifluoromethoxy)phenoxy]-4-(trifluoromethyl)benzamide] |
| 53 | COc1cc(OC(F)(F)F)ccc1Oc1cc(C(F)(F)F)cc(F)c1C(=O)Nc1ccc(C(N)=O)nc1 [Compound 187, 5-[[2-Fluoro-6-[2-methoxy-4-(trifluoromethoxy)phenoxy]-4-(trifluoromethyl)benzoyl]amino]pyridine-2-carboxamide] |
| 12 | [2H]C([2H])([2H])Oc1cc(OC(F)(F)F)ccc1Oc1cc(OC(F)(F)F)cc(F)c1C(=O)Nc1ccnc(C(N)=O)c1 [Compound 172, 4-[[2-Fluoro-6-[2-(trideuteriomethoxy)-4-(trifluoromethoxy)phenoxy]-4-(trifluoromethoxy)benzoyl]amino]pyridine-2-carboxamide] |
| 430 | COc1cc(OC(F)(F)F)ccc1Oc1cc(Cl)cc(OC)c1C(=O)Nc1cc(C(N)=O)ncc1C [Compound 133, 4-[[4-Chloro-2-methoxy-6-[2-methoxy-4-(trifluoromethoxy)phenoxy]benzoyl]amino]-5-methyl-pyridine-2-carboxamide] |
| 1400 | COc1cc(OC(F)(F)F)ccc1Oc1cncc(OC)c1C(=O)Nc1ccc(F)c(C(N)=O)c1 [Compound 138, N-(3-Carbamoyl-4-fluoro-phenyl)-3-methoxy-5-[2-methoxy-4-(trifluoromethoxy)phenoxy]pyridine-4-carboxamide] |
| 27 | COc1cc(OC(F)(F)F)ccc1Oc1ccc(C(F)(F)F)c(F)c1C(=O)Nc1ccnc(C(N)=O)n1 [Compound 207, 4-[[2-Fluoro-6-[2-methoxy-4-(trifluoromethoxy)phenoxy]-3-(trifluoromethyl)benzoyl]amino]pyrimidine-2-carboxamide] |
| 4 | [2H]C([2H])([2H])Oc1c(Oc2cc(Cl)c(C(F)F)c(OC)c2C(=O)Nc2ccnc(C(N)=O)c2)ccc(OC(F)(F)F)c1F [Compound 233] |
| 850 | COc1cc(F)ccc1Oc1cc(OC(F)(F)F)ccc1C(=O)Nc1ccnc(C(N)=O)c1 [Compound 148, 4-[[2-(4-Fluoro-2-methoxy-phenoxy)-4-(trifluoromethoxy)benzoyl]amino]pyridine-2-carboxamide] |
| 185 | NC(=O)c1ccc(NC(=O)c2c(Oc3ccc(OC(F)(F)F)cc3)ccc(C(F)(F)F)c2F)cn1 [Compound 60, 5-[[2-fluoro-6-[4-(trifluoromethoxy)phenoxy]-3-(trifluoromethyl)benzoyl]amino]pyridine-2-carboxamide] |
| 5 | COc1cc(OC(F)(F)F)ccc1Oc1ccc(C(F)(F)F)c(F)c1C(=O)Nc1cc(C(N)=O)ncc1F [Compound 123, 5-Fluoro-4-[[2-fluoro-6-[2-methoxy-4-(trifluoromethoxy)phenoxy]-3-(trifluoromethyl)benzoyl]amino]pyridine-2-carboxamide] |
| 20 | COc1cc(OC(F)(F)F)ccc1Oc1ccc(C(F)(F)F)c(F)c1C(=O)Nc1ccnc(C(=O)N(C)C)c1 [Compound 97, 4-[[2-fluoro-6-[2-methoxy-4-(trifluoromethoxy)phenoxy]-3-(trifluoromethyl)benzoyl]amino]-N,N-dimethyl-pyridine-2-carboxamide] |
| 34 | COc1cc(OC(F)(F)F)ccc1Oc1cc(C(C)(C)F)ncc1C(=O)Nc1ccc(F)c(C(N)=O)c1 [Compound 103, N-(3-Carbamoyl-4-fluoro-phenyl)-6-(1-fluoro-1-methyl-ethyl)-4-[2-methoxy-4-(trifluoromethoxy)phenoxy]pyridine-3-carboxamide] |
| 9 | [2H]C([2H])([2H])Oc1cc(OC(F)(F)F)ccc1Oc1ccc(C(F)(F)F)c(F)c1C(=O)Nc1ccc(C)c(C(N)=O)c1 [Compound 145, N-(3-carbamoyl-4-methyl-phenyl)-2-fluoro-6-[2-(trideuteriomethoxy)-4-(trifluoromethoxy)phenoxy]-3-(trifluoromethyl)benzamide] |
| 35 | COc1cc(OC(F)(F)F)ccc1Oc1ccc(F)c(Cl)c1C(=O)Nc1ccnc(C(N)=O)c1 [Compound 171, 4-[[2-Chloro-3-fluoro-6-[2-methoxy-4-(trifluoromethoxy)phenoxy]benzoyl]amino]pyridine-2-carboxamide] |
| 6 | [2H]C([2H])([2H])Oc1cc(OC(F)(F)F)ccc1Oc1ccc(C(F)(F)F)c(F)c1C(=O)Nc1cc[n+]([O-])c(C(N)=O)c1 [Compound 115, 4-[[2-Fluoro-6-[2-(trideuteriomethoxy)-4-(trifluoromethoxy)phenoxy]-3-(trifluoromethyl)benzoyl]amino]-1-oxido-pyridin-1-ium-2-carboxamide] |
| 21 | COc1cc(OC(F)(F)F)ccc1Oc1cnc(C(F)(F)F)c(F)c1C(=O)Nc1ccc(C(N)=O)nc1 [Compound 194, N-(6-carbamoyl-3-pyridyl)-3-fluoro-5-[2-methoxy-4-(trifluoromethoxy)phenoxy]-2-(trifluoromethyl)pyridine-4-carboxamide] |
| 11 | COc1cc(OC(F)(F)F)ccc1Oc1cc(C(F)(F)F)cc(F)c1C(=O)Nc1ccnc(C(N)=O)c1 [Compound 163, 4-[[2-Fluoro-6-[2-methoxy-4-(trifluoromethoxy)phenoxy]-4-(trifluoromethyl)benzoyl]amino]pyridine-2-carboxamide] |
| 76 | COc1cc(F)ccc1Oc1cc(Cl)cc(Cl)c1C(=O)Nc1ccnc(C(N)=O)c1 [Compound 178, 4-[[2,4-Dichloro-6-(4-fluoro-2-methoxy-phenoxy)benzoyl]amino]pyridine-2-carboxamide] |
| 3 | CNC(=O)c1cc(NC(=O)c2c(Oc3ccc(OC(F)(F)F)cc3OC)ccc(C(F)(F)F)c2F)ccc1F [Compound 99, 2-fluoro-N-[4-fluoro-3-(methylcarbamoyl)phenyl]-6-[2-methoxy-4-(trifluoromethoxy)phenoxy]-3-(trifluoromethyl)benzamide] |
| 7 | COc1nc(Cl)ccc1Oc1ccc(C(F)(F)F)c(F)c1C(=O)Nc1ccc(F)c(C(N)=O)c1 [Compound 54, N-(3-Carbamoyl-4-fluoro-phenyl)-6-[(6-chloro-2-methoxy-3-pyridyl)oxy]-2-fluoro-3-(trifluoromethyl)benzamide] |
| 1100 | NC(=O)c1cc(NC(=O)c2c(F)c(C(F)(F)F)cc(OCc3ccccc3)c2Oc2ccc(OC(F)(F)F)cc2)ccc1F [Compound 217, 5-Benzyloxy-N-(3-carbamoyl-4-fluoro-phenyl)-2-fluoro-6-[4-(trifluoromethoxy)phenoxy]-3-(trifluoromethyl)benzamide] |
